Data from patent US8859562B2, “Use of RNAI inhibiting PARP activity for the manufacture of a medicament for the treatment of cancer” (The University of Sheffield, priority 2003, dated 2014).

How the values were obtained:
V79 hamster cells = experiment: PAR polymer staining (sites of PARP activity); format: cell-based; conditions: V79 cells treated for 24 hours; FIG. 7C
Procedure: (§1) Cells were plated onto coverslips 4 h prior to 24-h treatments as indicated. Following treatments the medium was removed and coverslips rinsed once in PBS at 37° C. and fixed as described elsewhere. The primary antibodies and dilutions used in this study were; rabbit polyclonal anti PAR (Trevigen; 1:500), goat polyclonal anti Rad51 (C-20, Santa Cruz; 1:200) and rabbit polyclonal anti Rad51 (H-92, Santa Cruz; 1:1000). The secondary antibodies were Cy-3-conjugated goat anti-rabbit IgG antibody (Zymed; 1:500), Alexa 555 goat anti-rabbit F(ab′)2IgG antibody (Molecular Probes; 1:500), Alexa 546 donkey anti-goat IgG antibody (Molecular Probes; 1:500) and Alexa 488 donkey anti-rabbit IgG antibody (Molecular Probes; 1:500). Antibodies were diluted in PBS containing 3% bovine serum albumin. DNA was stained with 1 μg/ml To Pro (Molecular Probes). Images were obtained with a Zeiss LSM 510 inverted confocal microscope using planapochromat 63X/NA 1.4 oil immersion objective and excitation wavelengths 488, 546 and 630 nm. Through focus maximum projection images were acquired from optical sections 0.50 μm apart and with a section thickness of 1.0 μm. Images were processed using Adobe PhotoShop (Abacus Inc). At least 300 nuclei were counted on each slide and those containing more than 10 RAD51 foci or sites of PARP activity were classified as positive.

PARP = PARP activity assay by level of free NAD(P)H (WST-8); format: cell-based; conditions: FIG. 7F; hydroxyurea 0.5 mM, thymidine 10 mM
Procedure: A water-soluble tetrazolium salt (5 mM WST-8) was used to monitor the amount of NAD(P)H through its reduction to a yellow coloured formazan dye[43]. 5000 cells were plated in at least triplicate into wells of a 96 well plate and cultured in 100 μl normal growth media for 4 h at 37° C. CK8 buffer (Dojindo Molecular Technology, Gaithersburg, USA), containing WST-8, was then added either with or without treatment with DNA damaging agents at concentrations indicated. Reduction of WST-8 in the presence of NAD(P)H was determined by measuring visible absorbance (OD450) every 30 min. A medium blank was also prepared containing just media and CK8 buffer. Changes in NAD(P)H levels were calculated by comparing the absorbance of wells containing cells treated with DNA damaging agents and those treated with DMSO alone. Alternately relative levels of NAD(P)H in different cells lines were calculated after 4 h incubation in CK8 buffer.

[1] = system: irs1X2.2 cells (irs1 complemented with XRCC2); experiment: Colony outgrowth assay, irs1X2.2 cells; format: cell-based, Chinese hamster; conditions: irs1X2.2 versus irs1; FIG. 1
Procedure: (§2) 500 cells suspended in medium were plated onto a Petri dish 4 hours prior to the addition of 3-AB, ISQ or NU1025. ISQ and NU1025 were dissolved in DMSO to a final concentration of 0.2% in treatment medium. 7-12 days later, when colonies could be observed, these colonies were fixed and stained with methylene blue in methanol (4 g/l). Colonies consisting of more than 50 cells were subsequently counted.

[2] = system: irs1SF cells (XRCC3 deficient, deficient in HR); experiment: Colony outgrowth assay, irs1SF cells; format: cell-based, Chinese hamster; conditions: defective in XRCC3, FIG. 1
Procedure: as §2

[3] = system: irs1 cells (XRCC2 deficient, deficient in HR); experiment: Colony outgrowth assay, irs1 cells; format: cell-based, Chinese hamster; conditions: irs1, defective in XRCC2; FIG. 1
Procedure: as §2

[4] = system: CXR3 cells (irs1SF complemented with XRCC3); experiment: Colony outgrowth assay, CXR3 cells; format: cell-based, Chinese hamster; conditions: CXR3 versus irs1SF; FIG. 1
Procedure: as §2

V-C8 cells = experiment: Pulse-field gel electrophoresis for DSBs, V-C8 cells; format: cell-based, Chinese hamster; conditions: highly toxic levels of NU1025 (0.1 mM, 24-hour), FIG. 5A
Procedure: (§3) 1.5×10^6 cells were plated onto 100 mm dishes and allowed 4 h for attachment. […] These inserts were incubated as described elsewhere (8) and separated by pulse-field gel electrophoresis for 24 h (BioRad; 120° angle, 60 to 240 s switch time, 4 V/cm). The gel was subsequently stained with ethidium bromide for analysis.

V-C8+B2 cells [5] = experiment: RAD51 foci immunofluorescence, V-C8+B2 cells; format: cell-based, Chinese hamster; conditions: 24-hour treatment, 10 μM, t-test p<0.05, FIG. 5D
Procedure: as §1

[6] = system: BRCA2 deficient cells (VC8); experiment: Colony outgrowth assay, VC8 cells; format: cell-based, Chinese hamster
Procedure: as §2

[7] = system: VC8#13 cells (functional BRCA2 gene on chromosome 13); experiment: Colony outgrowth assay, VC8#13 cells; format: cell-based, Chinese hamster; conditions: BRCA2 on chromosome 13 (VC8#13); FIG. 2
Procedure: as §2

[8] = system: BRCA2 deficient V-C8 cells; experiment: RAD51 foci immunofluorescence, V-C8 cells; format: cell-based, Chinese hamster; conditions: 24-hour treatment, 10 μM, FIG. 5D
Procedure: as §1

VC8 cells = experiment: Apoptosis experiments (annexin-V/PI flow cytometry); format: cell-based, Chinese hamster; conditions: 72 hours following exposure; FIG. 3
Procedure: 0.25×10^6 cells were plated onto Petri dishes and grown for 4 hours before treatment with NU1025. After 72 hours, cells were trypsinized and resuspended with medium containing any floating cells from that sample. The cells were pelleted by centrifugation and resuspended for apoptosis analysis with FITC-conjugated annexin-V and propidium iodine (PI) (ApoTarget, Biosource International) according to manufacturer's protocol. Samples were analysed by flow cytometry (Becton-Dickenson FACSort, 488 nm laser), and percentage of apoptotic cells was determined by the fraction of live cells (PI-negative) bound with FITC-conjugated annexin-V.

[9] = system: VC8+B2 cells (functional BRCA2 gene on overexpression vector); experiment: Colony outgrowth assay, VC8+B2 cells; format: cell-based, Chinese hamster; conditions: FIG. 2
Procedure: as §2

[10] = system: MDA-MB-231 (mutated p53) breast cancer cells depleted of BRCA2; experiment: Colony outgrowth of siRNA-treated MDA-MB-231 cells; format: cell-based; conditions: MDA-MB-231, BRCA2 depleted with a mixture of BRCA2 siRNA; FIG. 4
Procedure: 500 cells suspended in medium were plated onto a Petri dish 4 hours prior to the addition of 3-AB, ISQ or NU1025. ISQ and NU1025 were dissolved in DMSO to a final concentration of 0.2% in treatment medium. 7-12 days later, when colonies could be observed, these colonies were fixed and stained with methylene blue in methanol (4 g/l). Colonies consisting of more than 50 cells were subsequently counted. Predesigned BRCA2 SMARTpool and scrambled siRNAs were purchased (Dharmacon, Lafayette, Colo.). 10000 cells seeded onto 6 well plates and left over night before transfected with 100 nM siRNA using Oligofectamine Reagent (Invitrogen) according to manufacturers instructions. Cells were then cultured in normal growth media for 48 h prior to trypsinisation and replating for toxicity assays. Suppression of BRCA2 was confirmed by Western blotting (as described previously) of protein extracts treated with siRNA with an antibody against BRCA2 (Oncogene, Nottingham, UK).

[11] = system: MCF7 (wild-type p53) breast cancer cells depleted of BRCA2; experiment: Colony outgrowth of siRNA-treated MCF-7 cells; format: cell-based; conditions: MCF7, BRCA2 depleted with a mixture of BRCA2 siRNA; FIG. 4
Procedure: as §2
Predesigned BRCA2 SMARTpool and scrambled siRNAs were purchased (Dharmacon, Lafayette, Colo.). 10000 cells seeded onto 6 well plates and left over night before transfected with 100 nM siRNA using Oligofectamine Reagent (Invitrogen) according to manufacturers instructions. Cells were then cultured in normal growth media for 48 h prior to trypsinisation and replating for toxicity assays. Suppression of BRCA2 was confirmed by Western blotting (as described previously) of protein extracts treated with siRNA with an antibody against BRCA2 (Oncogene, Nottingham, UK).

V-C8+B2 cells [12] = experiment: Survival on co-treatment with replication inhibitors and NU1025; format: cell-based, Chinese hamster; conditions: co-treatment with NU1025 (10 μM)
Procedure: as §2

V79 cells = experiment: Pulse-field gel electrophoresis for DSBs, V79 cells; format: cell-based, Chinese hamster; conditions: highly toxic levels of NU1025 (0.1 mM, 24-hour), FIG. 5A
Procedure: as §3

Compound	number of cells containing sites of PARP activity (V79 hamster cells)	activation of PARP and reduction of NAD(P)H levels (PARP)	sensitivity after introduction of functional XRCC2 gene [1]	sensitivity to the toxic effect (survival) [2]	sensitivity to the toxic effect (survival) [3]	sensitivity after introduction of functional XRCC3 gene [4]	further results
Cc1cn([C@H]2C[C@H](O)[C@@H](CO)O2)c(=O)[nH]c1=O [thymidine]	substantial increase	much slower	–	–	–	–	–
COS(C)(=O)=O [MMS, Methylmethane sulphonate]	–	depletes the NAD(P)H levels	–	–	–	–	–
Oc1cccc2c(O)nccc12 [ISQ, 1,5-dihydroxyisoquinoline]	–	–	corrected	very sensitive	very sensitive	corrected	–
NC(=O)c1cccc(N)c1 [3-AB, 3-aminobenzamide]	–	–	corrected	very sensitive	very sensitive	corrected	–
Cc1nc2c(O)cccc2c(=O)[nH]1 [NU1025, 8-hydroxy-2-methylquinazolin-4-[3H]one]	–	–	corrected	very sensitive	very sensitive	corrected	accumulation of DSBs (V-C8 cells): no DSBs were detectable; formation of RAD51 foci (V-C8+B2 cells [5]): RAD51 foci were indeed induced; sensitivity to cytotoxicity relative to wild type cells ([6]; BRCA2 deficient cells versus wild type cells): 100 times; sensitivity to the toxic effect (survival) ([6]; VC8 versus wild type V79Z, FIG. 2): very sensitive; sensitivity after introduction of functional BRCA2 gene [7]: corrected; formation of RAD51 foci [8]: unable to form RAD51 foci; level of apoptosis (VC8 cells): triggered apoptosis only in VC8 cells; sensitivity after introduction of functional BRCA2 gene [9]: corrected; survival [10]: profoundly reduced the survival; survival [11]: profoundly reduced the survival; sensitivity to hydroxyurea (V-C8+B2 cells [12]; FIG. 7D): enhances the sensitivity; sensitivity to thymidine (V-C8+B2 cells [12]; FIG. 7E): enhances the sensitivity; accumulation of DSBs (V79 cells): no DSBs were detectable
NC(=O)NO [hydroxyurea]	substantial increase	much slower	–	–	–	–	–
